Experimental findings from patent US7074789B2, “Kinase inhibitors” (Amgen Inc., priority 1999, dated 2006) are described below.

What all share (assay type): biochemical
The target in assay [1] is T1, Fyn (Homo sapiens, UniProt P06241).
T1 construct: Kinases are expressed as either kinase domains or full length constructs; made in house
Kind of assay: Kinase inhibition assay (33P transfer), Fyn. The conditions noted are these: read-out: Fyn-1. An outline of the steps:
(§1)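 GST/His-fusion kinases, E. coli or High Five expressed, affinity purified; 33P-ATP, plate-coated poly(Glu,Tyr) 4:1 or poly(Arg,Ser) 3:1; 0.5% H3PO4 wash, scintillant, LSC.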

For assay [2], the target named is T2, EGFR (Homo sapiens, UniProt P00533).
T2 construct: Kinases are expressed as either kinase domains or full length constructs; made in house
T2 sequence (P00533 25-1210, species assumed): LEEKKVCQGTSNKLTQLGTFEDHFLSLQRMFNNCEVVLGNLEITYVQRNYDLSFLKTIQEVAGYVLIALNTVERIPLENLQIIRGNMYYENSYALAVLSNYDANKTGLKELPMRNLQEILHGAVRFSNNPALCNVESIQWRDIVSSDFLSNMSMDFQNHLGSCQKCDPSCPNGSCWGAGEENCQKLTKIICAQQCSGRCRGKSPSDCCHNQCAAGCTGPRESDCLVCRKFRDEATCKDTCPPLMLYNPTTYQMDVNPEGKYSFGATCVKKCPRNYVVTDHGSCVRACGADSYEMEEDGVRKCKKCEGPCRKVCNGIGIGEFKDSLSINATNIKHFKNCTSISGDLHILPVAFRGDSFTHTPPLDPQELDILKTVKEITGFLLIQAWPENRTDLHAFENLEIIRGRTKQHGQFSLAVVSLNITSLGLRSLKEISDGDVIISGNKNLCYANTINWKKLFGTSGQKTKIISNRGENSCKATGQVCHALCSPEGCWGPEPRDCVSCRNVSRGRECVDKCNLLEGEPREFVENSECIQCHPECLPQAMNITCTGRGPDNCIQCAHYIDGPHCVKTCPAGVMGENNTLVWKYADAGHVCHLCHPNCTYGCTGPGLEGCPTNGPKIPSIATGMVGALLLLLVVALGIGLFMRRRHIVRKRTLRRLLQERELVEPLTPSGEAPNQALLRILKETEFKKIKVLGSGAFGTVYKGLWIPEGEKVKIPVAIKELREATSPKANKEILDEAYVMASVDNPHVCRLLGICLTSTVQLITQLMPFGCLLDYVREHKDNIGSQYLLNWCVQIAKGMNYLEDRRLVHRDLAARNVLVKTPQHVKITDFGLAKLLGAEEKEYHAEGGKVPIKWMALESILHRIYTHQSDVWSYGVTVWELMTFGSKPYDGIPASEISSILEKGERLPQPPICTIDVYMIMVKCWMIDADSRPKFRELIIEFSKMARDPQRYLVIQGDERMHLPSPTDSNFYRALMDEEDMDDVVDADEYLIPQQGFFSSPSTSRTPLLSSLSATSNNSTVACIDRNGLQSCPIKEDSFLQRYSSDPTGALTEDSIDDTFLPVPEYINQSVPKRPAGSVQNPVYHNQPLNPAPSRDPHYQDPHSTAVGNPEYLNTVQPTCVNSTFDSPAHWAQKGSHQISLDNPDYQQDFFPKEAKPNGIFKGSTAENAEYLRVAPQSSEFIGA
The assay can be described thus: Kinase inhibition assay (33P transfer), EGFR. The note with it: Table 2, kinase inhibition class; read-out: EGFR-1. An outline of the steps: as §1

In assay [3] the target is T3, Tek (Homo sapiens, UniProt Q02763).
T3 construct: Kinases are expressed as either kinase domains or full length constructs; made in house
T3 sequence (Q02763 23-1124, species assumed): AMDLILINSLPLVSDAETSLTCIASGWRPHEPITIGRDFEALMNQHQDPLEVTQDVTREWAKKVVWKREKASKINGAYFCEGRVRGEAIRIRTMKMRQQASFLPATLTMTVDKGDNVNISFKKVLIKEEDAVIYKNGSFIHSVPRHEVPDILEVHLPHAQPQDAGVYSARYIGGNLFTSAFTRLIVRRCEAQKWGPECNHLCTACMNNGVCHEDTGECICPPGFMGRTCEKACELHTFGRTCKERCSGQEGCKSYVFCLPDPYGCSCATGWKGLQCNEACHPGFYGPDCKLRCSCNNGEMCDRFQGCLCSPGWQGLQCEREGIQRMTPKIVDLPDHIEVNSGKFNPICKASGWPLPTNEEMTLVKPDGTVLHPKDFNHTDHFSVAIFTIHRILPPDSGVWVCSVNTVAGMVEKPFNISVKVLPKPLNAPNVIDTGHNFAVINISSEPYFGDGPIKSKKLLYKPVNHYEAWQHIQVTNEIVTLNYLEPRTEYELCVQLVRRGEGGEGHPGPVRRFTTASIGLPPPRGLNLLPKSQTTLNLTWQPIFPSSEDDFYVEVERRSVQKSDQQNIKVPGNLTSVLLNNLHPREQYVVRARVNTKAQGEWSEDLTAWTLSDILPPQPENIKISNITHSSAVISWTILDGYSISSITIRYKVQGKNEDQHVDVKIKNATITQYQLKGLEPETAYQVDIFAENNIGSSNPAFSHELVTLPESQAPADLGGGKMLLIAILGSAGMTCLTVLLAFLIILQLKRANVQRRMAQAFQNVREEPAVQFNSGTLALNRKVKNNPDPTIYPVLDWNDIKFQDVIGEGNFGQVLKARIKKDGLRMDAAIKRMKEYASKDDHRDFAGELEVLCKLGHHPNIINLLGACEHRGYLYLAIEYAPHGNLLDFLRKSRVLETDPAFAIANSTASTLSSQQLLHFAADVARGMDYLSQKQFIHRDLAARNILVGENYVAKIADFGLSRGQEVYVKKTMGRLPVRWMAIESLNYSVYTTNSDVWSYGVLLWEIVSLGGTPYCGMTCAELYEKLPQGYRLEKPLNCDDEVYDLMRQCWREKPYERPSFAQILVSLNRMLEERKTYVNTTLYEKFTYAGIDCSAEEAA
Kind of assay: Kinase inhibition assay (33P transfer), Tek. The conditions noted are these: read-out: Tek-1. Put shortly:
as §1

Assay [4] concerns the target T4, Src (Homo sapiens, UniProt P12931).
T4 construct: Kinases are expressed as either kinase domains or full length constructs; made in house
The assay can be described thus: Kinase inhibition assay (33P transfer), Src. The conditions noted are these: Table 6, Src-1 kinase inhibition class. Put shortly:
as §1

Assay [5] addresses T5, Itk (Homo sapiens, UniProt Q08881).
T5 construct: Kinases are expressed as either kinase domains or full length constructs; made in house
T5 sequence (Q08881 1-620): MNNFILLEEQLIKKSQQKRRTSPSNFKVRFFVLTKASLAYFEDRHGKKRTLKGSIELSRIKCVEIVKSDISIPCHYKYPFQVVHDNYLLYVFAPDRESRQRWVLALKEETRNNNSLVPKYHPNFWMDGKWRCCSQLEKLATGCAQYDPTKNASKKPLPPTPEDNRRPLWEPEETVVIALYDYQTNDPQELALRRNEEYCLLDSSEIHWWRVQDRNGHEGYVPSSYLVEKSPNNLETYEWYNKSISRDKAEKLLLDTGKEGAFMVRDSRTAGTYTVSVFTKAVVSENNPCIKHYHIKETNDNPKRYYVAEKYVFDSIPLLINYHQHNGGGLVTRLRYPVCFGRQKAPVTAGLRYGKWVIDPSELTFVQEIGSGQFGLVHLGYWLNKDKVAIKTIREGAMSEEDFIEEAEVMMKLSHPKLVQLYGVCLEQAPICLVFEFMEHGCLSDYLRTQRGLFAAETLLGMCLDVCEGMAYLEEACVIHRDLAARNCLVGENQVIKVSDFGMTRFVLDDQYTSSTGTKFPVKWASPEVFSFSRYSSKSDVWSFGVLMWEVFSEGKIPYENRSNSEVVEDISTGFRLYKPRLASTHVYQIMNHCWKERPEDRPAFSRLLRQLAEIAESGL
The assay can be described thus: Kinase inhibition assay (33P transfer), Itk. The conditions noted are these: Table 3; read-out: Itk-1. Put shortly: as §1

Assay [6] concerns the target T6, EPHB4 (Homo sapiens, UniProt P54760).
T6 construct: Kinases are expressed as either kinase domains or full length constructs; made in house
T6 sequence (P54760 16-987): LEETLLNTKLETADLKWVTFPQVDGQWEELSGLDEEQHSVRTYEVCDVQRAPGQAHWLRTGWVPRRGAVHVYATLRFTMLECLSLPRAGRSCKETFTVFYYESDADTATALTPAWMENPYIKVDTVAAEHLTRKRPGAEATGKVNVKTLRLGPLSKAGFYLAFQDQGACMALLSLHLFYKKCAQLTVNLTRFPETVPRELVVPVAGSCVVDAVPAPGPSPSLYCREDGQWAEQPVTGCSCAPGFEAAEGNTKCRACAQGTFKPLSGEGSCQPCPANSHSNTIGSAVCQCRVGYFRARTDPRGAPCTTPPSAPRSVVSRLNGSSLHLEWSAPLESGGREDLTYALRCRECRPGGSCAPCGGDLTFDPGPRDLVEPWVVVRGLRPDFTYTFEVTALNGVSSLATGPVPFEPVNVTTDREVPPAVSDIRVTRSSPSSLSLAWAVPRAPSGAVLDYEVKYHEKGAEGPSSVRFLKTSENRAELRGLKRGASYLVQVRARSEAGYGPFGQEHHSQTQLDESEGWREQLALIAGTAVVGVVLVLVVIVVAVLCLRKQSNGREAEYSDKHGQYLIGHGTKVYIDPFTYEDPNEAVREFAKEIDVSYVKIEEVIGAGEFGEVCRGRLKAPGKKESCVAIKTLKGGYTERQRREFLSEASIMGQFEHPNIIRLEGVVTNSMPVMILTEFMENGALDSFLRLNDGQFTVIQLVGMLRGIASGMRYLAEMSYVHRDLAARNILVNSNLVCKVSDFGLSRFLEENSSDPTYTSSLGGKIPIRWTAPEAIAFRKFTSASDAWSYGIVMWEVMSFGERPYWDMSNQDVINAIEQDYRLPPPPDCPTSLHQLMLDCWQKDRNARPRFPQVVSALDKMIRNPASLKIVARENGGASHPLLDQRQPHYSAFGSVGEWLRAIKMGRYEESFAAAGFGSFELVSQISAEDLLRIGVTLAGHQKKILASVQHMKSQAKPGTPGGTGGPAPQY
The assay can be described thus: Kinase inhibition assay (33P transfer), EPHB4. The conditions noted are these: read-out: EPHB4-1.

Assay [7] has as its target T7, ErbB4 (Homo sapiens, UniProt Q15303).
T7 construct: Kinases are expressed as either kinase domains or full length constructs; made in house
The assay can be described thus: Kinase inhibition assay (33P transfer), ErbB4. The conditions noted are these: read-out: ErbB4-1.

The target in assay [8] is T8, Ret-1 (Homo sapiens, UniProt P07949).
T8 construct: Kinases are expressed as either kinase domains or full length constructs; made in house
Kind of assay: Kinase inhibition assay (33P transfer), Ret. The conditions noted are these: Table 6, Ret-1 kinase inhibition class.

Each structure is given as a SMILES string.

T4 sequence (P12931 whole entry, species assumed, the tested form may be a part): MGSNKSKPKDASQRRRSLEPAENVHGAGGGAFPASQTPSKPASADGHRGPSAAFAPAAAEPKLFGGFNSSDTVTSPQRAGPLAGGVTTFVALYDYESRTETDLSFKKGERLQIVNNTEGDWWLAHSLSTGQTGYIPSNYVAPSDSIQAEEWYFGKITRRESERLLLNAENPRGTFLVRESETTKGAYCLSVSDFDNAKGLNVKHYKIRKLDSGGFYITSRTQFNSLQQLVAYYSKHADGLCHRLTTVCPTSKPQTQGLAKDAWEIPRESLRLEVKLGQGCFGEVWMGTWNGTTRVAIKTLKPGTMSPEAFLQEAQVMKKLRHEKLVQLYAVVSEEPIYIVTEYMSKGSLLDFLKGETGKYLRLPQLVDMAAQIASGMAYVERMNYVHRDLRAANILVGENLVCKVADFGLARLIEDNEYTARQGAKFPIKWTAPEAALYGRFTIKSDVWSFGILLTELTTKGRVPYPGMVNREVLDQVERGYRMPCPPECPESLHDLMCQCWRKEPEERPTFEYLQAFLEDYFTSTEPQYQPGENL
T1 sequence (P06241 whole entry, species assumed, the tested form may be a part): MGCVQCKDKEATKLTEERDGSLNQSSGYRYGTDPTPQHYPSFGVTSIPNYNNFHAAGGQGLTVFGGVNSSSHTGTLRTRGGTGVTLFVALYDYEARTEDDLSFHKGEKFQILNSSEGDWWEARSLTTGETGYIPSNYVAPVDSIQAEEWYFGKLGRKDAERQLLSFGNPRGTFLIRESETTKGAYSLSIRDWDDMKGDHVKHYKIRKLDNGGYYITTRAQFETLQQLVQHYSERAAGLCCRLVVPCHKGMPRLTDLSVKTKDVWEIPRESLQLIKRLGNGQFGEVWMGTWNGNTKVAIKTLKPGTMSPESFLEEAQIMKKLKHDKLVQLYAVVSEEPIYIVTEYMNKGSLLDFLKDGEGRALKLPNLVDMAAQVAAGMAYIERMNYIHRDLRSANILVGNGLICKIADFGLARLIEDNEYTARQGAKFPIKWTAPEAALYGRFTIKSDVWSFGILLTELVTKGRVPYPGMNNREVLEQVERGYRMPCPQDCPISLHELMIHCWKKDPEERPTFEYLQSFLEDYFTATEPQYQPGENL
T7 sequence (Q15303 26-1308, species assumed): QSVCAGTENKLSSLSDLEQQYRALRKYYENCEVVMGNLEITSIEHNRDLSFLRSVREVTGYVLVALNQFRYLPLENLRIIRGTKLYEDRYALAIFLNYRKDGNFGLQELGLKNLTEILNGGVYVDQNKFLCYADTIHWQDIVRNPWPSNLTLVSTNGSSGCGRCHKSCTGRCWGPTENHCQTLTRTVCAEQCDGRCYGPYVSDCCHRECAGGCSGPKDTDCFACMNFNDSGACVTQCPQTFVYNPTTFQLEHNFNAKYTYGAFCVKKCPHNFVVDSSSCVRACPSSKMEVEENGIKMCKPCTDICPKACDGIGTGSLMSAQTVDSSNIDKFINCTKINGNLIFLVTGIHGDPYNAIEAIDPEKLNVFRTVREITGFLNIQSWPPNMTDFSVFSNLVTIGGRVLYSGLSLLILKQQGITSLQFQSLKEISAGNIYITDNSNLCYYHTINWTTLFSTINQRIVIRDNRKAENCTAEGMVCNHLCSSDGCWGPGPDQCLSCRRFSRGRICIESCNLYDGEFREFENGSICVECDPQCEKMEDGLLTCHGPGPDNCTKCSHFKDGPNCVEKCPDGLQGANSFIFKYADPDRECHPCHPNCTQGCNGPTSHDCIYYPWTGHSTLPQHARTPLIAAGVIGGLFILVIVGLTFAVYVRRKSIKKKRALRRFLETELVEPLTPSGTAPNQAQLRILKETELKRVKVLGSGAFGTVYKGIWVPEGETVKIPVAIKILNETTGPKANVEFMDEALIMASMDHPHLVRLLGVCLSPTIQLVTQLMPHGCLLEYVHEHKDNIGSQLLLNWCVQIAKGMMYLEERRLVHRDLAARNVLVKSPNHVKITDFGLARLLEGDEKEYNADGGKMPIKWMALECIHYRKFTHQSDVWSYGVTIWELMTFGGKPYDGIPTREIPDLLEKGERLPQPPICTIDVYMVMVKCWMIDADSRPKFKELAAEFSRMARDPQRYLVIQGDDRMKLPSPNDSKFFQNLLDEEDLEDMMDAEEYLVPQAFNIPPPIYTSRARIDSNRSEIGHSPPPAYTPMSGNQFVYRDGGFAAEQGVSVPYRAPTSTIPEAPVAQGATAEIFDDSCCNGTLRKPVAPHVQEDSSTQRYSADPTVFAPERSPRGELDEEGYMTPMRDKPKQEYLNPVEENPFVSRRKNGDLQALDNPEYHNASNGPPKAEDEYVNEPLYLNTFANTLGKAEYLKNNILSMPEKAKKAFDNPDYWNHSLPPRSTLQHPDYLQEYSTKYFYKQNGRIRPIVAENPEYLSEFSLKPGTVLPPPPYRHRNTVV

As for `COc1cc(Nc2ncnc(Nc3ccc(Br)cc3F)n2)cc(OC)c1OC` [Compound 41], the IC50 in assay [1] is 0.888 to 5.33 µM; in assay [2] it was under 0.888 µM; in assay [3] it was 7.77 to 9.99 µM; in assay [4], 0.888 to 5.33 µM; in assay [5], 7.77 to 9.99 µM; in assay [6], 0.888 to 5.33 µM. The IC50 in assay [7] is over 9.99 µM; in assay [8] it was under 0.888 µM.
Take `COc1cc(Nc2ncnc(N(C/C=C/c3ccccc3)c3ccc(Cl)cc3)n2)cc(OC)c1OC` [Compound 56]: the IC50 in assay [1] is over 8.93 µM; in assay [2], under 0.794 µM; in assay [3], over 8.93 µM; in assay [4] it was over 8.93 µM; in assay [5] it was over 8.93 µM; in assay [6] it was over 8.93 µM. Moreover, the IC50 in assay [7] and in assay [8] was over 8.93 µM in each case.
As for `Cc1cccc(Nc2ncnc(Nc3ccc(O)cc3)n2)c1` [Compound 107], the IC50 was under 1.36 µM in assay [1]; under 1.36 µM in assay [2]; over 15.3 µM in assay [3]; under 1.36 µM in assay [4]; 1.36 to 8.18 µM in assay [5]; 1.36 to 8.18 µM in assay [6]. For the same compound, the IC50 in assay [7] was 8.18 to 11.9 µM; in assay [8] it was 1.36 to 8.18 µM.
For `Cc1cccc(Nc2ncnc(Nc3ccc4[nH]ccc4c3)n2)c1` [Compound 110], the IC50 in assay [1] was under 1.26 µM; in assay [2] it was under 1.26 µM; in assay [3], over 14.2 µM; in assay [4], under 1.26 µM; in assay [5], 7.59 to 11.1 µM; in assay [6], 11.1 to 14.2 µM. The IC50 in assay [7] and in assay [8] was 1.26 to 7.59 µM each time.
For the compound `COc1ccc(Nc2ncnc(Nc3ccc4[nH]ccc4c3)n2)cc1OC` [Compound 115], the IC50 in assay [1] was 6.62 to 9.66 µM; in assay [2], under 1.1 µM; in assay [3], over 12.4 µM; in assay [4], 6.62 to 9.66 µM; in assay [5], 9.66 to 12.4 µM; in assay [6], 9.66 to 12.4 µM. In addition, the IC50 in assay [7] was over 12.4 µM; in assay [8], 1.1 to 6.62 µM.
`C#Cc1cccc(Nc2ncnc(Nc3ccc(OC)c(OC)c3)n2)c1` [Compound 116]: the IC50 in assay [1] is over 13 µM; in assay [2], under 1.15 µM; in assay [3], over 13 µM; in assay [4] it was over 13 µM; in assay [5], over 13 µM; in assay [6], over 13 µM. For the same compound, the IC50 in assay [7] and in assay [8] was over 13 µM each time.
`COc1ccc(Nc2ncnc(Nc3ccc(C)c(O)c3)n2)cc1OC` [Compound 119]: the IC50 in assay [1] was under 1.13 µM; in assay [2], under 1.13 µM; in assay [3] it was over 12.7 µM; in assay [4], 1.13 to 6.79 µM; in assay [5], 9.9 to 12.7 µM; in assay [6], over 12.7 µM. The IC50 was 1.13 to 6.79 µM in assay [7] and under 1.13 µM in assay [8].
For the compound `Cc1cccc(Nc2ncnc(Nc3ccc4[nH]ncc4c3)n2)c1` [Compound 120], the IC50 in assay [1] is 1.26 to 7.56 µM; in assay [2], under 1.26 µM; in assay [3], 7.56 to 11 µM; in assay [4] it was 1.26 to 7.56 µM; in assay [5] it was 7.56 to 11 µM; in assay [6], 1.26 to 7.56 µM. The IC50 in assay [7] was 1.26 to 7.56 µM; in assay [8] it was under 1.26 µM.
`CCOc1ccc(Nc2ncnc(Nc3ccc(C)c(O)c3)n2)cc1OCC` [Compound 121]: the IC50 is under 1.05 µM in assay [1]; 1.05 to 6.29 µM in assay [2]; over 11.8 µM in assay [3]; under 1.05 µM in assay [4]; 9.18 to 11.8 µM in assay [5]; over 11.8 µM in assay [6]. Also, the IC50 in assay [7] was 1.05 to 6.29 µM; in assay [8] it was under 1.05 µM.
As to `COCCOc1ccc(Nc2ncnc(Nc3ccc(C)c(O)c3)n2)cc1OC` [Compound 123], the IC50 in assay [1] was 1.01 to 6.04 µM; in assay [2], under 1.01 µM; in assay [3], 8.81 to 11.3 µM; in assay [4], under 1.01 µM; in assay [5], 6.04 to 8.81 µM; in assay [6], over 11.3 µM. Moreover, the results for the IC50 in assay [7] and in assay [8] were 1.01 to 6.04 µM and under 1.01 µM, respectively.
Turning to `COCCOc1ccc(Nc2ncnc(Nc3ccc(C)c(O)c3)n2)cc1OCCOC` [Compound 125], the IC50 in assay [1] was 0.906 to 5.44 µM; in assay [2] it was 0.906 to 5.44 µM; in assay [3], over 10.2 µM; in assay [4] it was under 0.906 µM; in assay [5] it was 5.44 to 7.93 µM; in assay [6], over 10.2 µM. In addition, the figures for the IC50 in assay [7] and in assay [8] were 7.93 to 10.2 µM and 0.906 to 5.44 µM, respectively.
Regarding `COCCOc1cc(Nc2ncnc(Nc3ccc(C)c(O)c3)n2)ccc1OC` [Compound 127], the IC50 in assay [1] was under 1.01 µM; in assay [2], under 1.01 µM; in assay [3], over 11.3 µM; in assay [4], under 1.01 µM; in assay [5] it was over 11.3 µM; in assay [6] it was 8.81 to 11.3 µM. In addition, the figures for the IC50 in assay [7] and in assay [8] were 1.01 to 6.04 µM and under 1.01 µM, respectively.
Consider `COc1cc(Nc2ncnc(Nc3cccc(Cl)c3)n2)cc(OC)c1OC` [Compound 135], for which the IC50 was under 1.03 µM in assay [1]; under 1.03 µM in assay [2]; 6.19 to 9.02 µM in assay [3]; under 1.03 µM in assay [4]; 6.19 to 9.02 µM in assay [5]; under 1.03 µM in assay [6]. Further, the figures for the IC50 in assay [7] and in assay [8] were 6.19 to 9.02 µM and 1.03 to 6.19 µM, respectively.
For `COc1cc(Nc2ncnc(Nc3ccc(OCc4ccccc4)cc3)n2)cc(OC)c1` [Compound 156], the IC50 was 5.59 to 8.15 µM in assay [1]; under 0.931 µM in assay [2]; over 10.5 µM in assay [3]; over 10.5 µM in assay [4]; over 10.5 µM in assay [5]; over 10.5 µM in assay [6]. The IC50 in assay [7] was 5.59 to 8.15 µM; in assay [8] it was over 10.5 µM.
As to `COc1ccc(Sc2ncnc(Nc3cc(OC)c(OC)c(OC)c3)n2)cc1` [Compound 175], the IC50 was 0.999 to 5.99 µM in assay [1]; over 11.2 µM in assay [2]; 0.999 to 5.99 µM in assay [3]; 0.999 to 5.99 µM in assay [4]; over 11.2 µM in assay [5]; 0.999 to 5.99 µM in assay [6]. The IC50 in assay [7] is over 11.2 µM; in assay [8], 5.99 to 8.74 µM.
On to `COc1cc(Nc2ncnc(Nc3ccc4c(ccn4Cc4ccccc4)c3)n2)cc(OC)c1OC` [Compound 178], for which the IC50 in assay [1] is 0.829 to 4.97 µM; in assay [2], under 0.829 µM; in assay [3] it was 4.97 to 7.25 µM; in assay [4] it was 0.829 to 4.97 µM; in assay [5], over 9.33 µM; in assay [6], 4.97 to 7.25 µM. For the same compound, the IC50 in assay [7] was over 9.33 µM; in assay [8] it was 4.97 to 7.25 µM.
Turning to `COc1ccc(Nc2ncnc(Nc3ccc(Oc4ccccc4)cc3)n2)cc1OC` [Compound 929], the IC50 in assay [2] is under 0.963 µM; in assay [3] it was over 10.8 µM; in assay [5], 0.963 to 5.78 µM; in assay [6], over 10.8 µM; in assay [7] it was 0.963 to 5.78 µM; in assay [8] it was 5.78 to 8.42 µM.
